Experimental data published in ChEMBL document CHEMBL1201862, “PubChem BioAssay data set” (2004).
Blank lines part the entries; values can stand above or below the molecule they belong to. Active and inactive are the calls of the source.

Tests used:
[1] = biological target: Voltage-gated inwardly rectifying potassium channel KCNH2 (Homo sapiens, UniProt Q12809); settings: Potency;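 also: confirmatory quantitative high-throughput screen measuring inhibition of hERG channel activity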
[2] = biological target: T1, Dual specificity protein phosphatase 6 (Rattus norvegicus, UniProt Q64346); format: functional
T1 sequence (Q64346 whole entry): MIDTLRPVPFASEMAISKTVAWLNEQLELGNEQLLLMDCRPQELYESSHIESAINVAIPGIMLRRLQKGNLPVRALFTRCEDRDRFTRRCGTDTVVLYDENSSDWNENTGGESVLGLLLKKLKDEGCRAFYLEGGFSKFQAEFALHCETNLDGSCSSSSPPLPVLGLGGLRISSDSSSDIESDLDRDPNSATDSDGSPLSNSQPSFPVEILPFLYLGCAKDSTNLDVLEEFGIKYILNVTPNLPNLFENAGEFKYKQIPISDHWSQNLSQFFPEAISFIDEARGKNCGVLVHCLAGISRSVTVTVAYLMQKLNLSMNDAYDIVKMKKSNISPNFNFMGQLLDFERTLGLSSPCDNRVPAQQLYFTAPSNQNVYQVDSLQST

[3] = biological target: T1, Dual specificity protein phosphatase 6
[4] = biological target: Glyceraldehyde-3-phosphate dehydrogenase (Homo sapiens, UniProt P04406)
[5] = biological target: T2, Tyrosine-protein phosphatase non-receptor type 7 (Homo sapiens, UniProt P35236); format: functional
T2 sequence (P35236 whole entry): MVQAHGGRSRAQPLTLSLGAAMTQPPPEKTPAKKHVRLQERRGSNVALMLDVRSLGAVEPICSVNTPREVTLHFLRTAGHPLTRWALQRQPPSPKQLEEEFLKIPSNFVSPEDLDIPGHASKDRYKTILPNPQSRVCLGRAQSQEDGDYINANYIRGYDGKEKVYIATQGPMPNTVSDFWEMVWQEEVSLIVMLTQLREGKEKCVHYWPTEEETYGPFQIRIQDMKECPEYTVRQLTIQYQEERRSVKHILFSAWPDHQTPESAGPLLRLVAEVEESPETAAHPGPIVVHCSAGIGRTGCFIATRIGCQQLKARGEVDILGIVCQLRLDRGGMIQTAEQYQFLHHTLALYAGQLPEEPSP

[6] = cytotoxicity in MIN6 insulinoma cells, dose response, cytotoxicity control, cell-based, mouse insulinoma (AID 2122); format: functional;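 also: confirmatory high-throughput counterscreen run to flag cytotoxic compounds; mouse MIN-6 beta cells carrying an insulin promoter eGFP reporter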
[7] = biological target: T3, Rac GTPase-activating protein 1 (Homo sapiens, UniProt Q9H0H5); experiment: MgcRacGAP GTPase-activating activity inhibitors, confirmation, biochemical, ADP Hunter fluorescence, primary and confirmatory (AID 624330); format: functional
T3 sequence (Q9H0H5 whole entry): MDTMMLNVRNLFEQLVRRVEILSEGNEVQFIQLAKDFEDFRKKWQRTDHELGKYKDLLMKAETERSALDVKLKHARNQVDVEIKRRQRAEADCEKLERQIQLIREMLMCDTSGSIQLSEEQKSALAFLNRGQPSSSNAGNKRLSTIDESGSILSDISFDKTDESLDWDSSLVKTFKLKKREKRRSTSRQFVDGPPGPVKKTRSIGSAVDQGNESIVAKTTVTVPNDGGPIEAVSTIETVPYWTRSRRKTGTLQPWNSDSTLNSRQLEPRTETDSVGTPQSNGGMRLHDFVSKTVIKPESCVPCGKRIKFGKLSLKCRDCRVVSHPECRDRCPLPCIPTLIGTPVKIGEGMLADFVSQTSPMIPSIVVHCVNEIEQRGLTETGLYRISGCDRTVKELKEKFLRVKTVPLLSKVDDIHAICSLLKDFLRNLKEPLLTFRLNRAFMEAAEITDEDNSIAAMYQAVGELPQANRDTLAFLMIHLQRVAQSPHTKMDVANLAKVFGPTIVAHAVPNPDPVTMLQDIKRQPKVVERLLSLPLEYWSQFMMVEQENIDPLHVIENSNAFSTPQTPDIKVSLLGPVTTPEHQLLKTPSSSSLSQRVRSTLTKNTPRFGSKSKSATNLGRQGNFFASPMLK

[8] = HeLa cell cytotoxicity, dose response, cytotoxicity control for MgcRacGAP inhibitor project (AID 624300); format: functional
[9] = insulin promoter down-regulators in MIN6 cells, imaging, high-content screening, mouse beta cells (AID 1628); format: functional
[10] = cytotoxicity in HEK-293T NF-kB-Luc cells, dose response, cytotoxicity control for B/T-cell NF-kB inhibitor project, cell-based, uHTS hits (AID 489019); format: functional;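 also: IC50 reflects cytotoxicity as loss of cell viability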
Jurkat = experiment: antigen receptor-induced NF-kB inhibitors, dose response, Jurkat, luciferase reporter, luminescence, B- and T-cell (AID 489004); format: functional, cell-based; settings: Homo sapiens;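 also: NF-kB luciferase reporter Jurkat cells stimulated with PMA plus ionomycin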
[11] = Late-stage probe development counterscreen for inhibitors of the Hepatitis C Virus non-structural protein 3 helicase (NS3): luminescence-based cell-based dose response assay to determine whether compounds that inhibit replication of HCV RNA replicon are cytotoxic. [Related pubchem assays (depositor defined):AID1800, AID1830, AID1845, AID1943, AID1945, AID2172, AID2173, AID2474, AID2476]; format: functional
NS3 = NS3 (Hepatitis C virus, UniProt A3EZJ3); experiment: PubChem AID 2173; design: species or system Hepacivirus hominis
Candida albicans [12] = experiment: growth inhibition of resistant C. albicans, dose response, CaCi-8 strain, fluconazole, dry powder, set 4 (AID 488950); format: functional, organism-based
NIH3T3 = experiment: cytotoxicity in NIH-3T3 fibroblasts, dose response, cytotoxicity control for antifungal drug resistance project, cell-based, Alamar Blue, fluconazole, dry powder (AID 488809); format: functional; settings: Mus musculus
Candida albicans [13] = experiment: fluconazole resistance reversal in C. albicans, dose response, CaCi-2 strain, Alamar Blue, dry powder, set 4 (AID 488943); format: functional, organism-based
Candida albicans [14] = experiment: growth inhibition of resistant C. albicans, dose response, CaCi-8, fluconazole, Alamar Blue, dry powder (AID 488807); format: functional, organism-based
CAAX prenyl protease 2 [15] = biological target: T4, CAAX prenyl protease 2 (Saccharomyces cerevisiae S288c, UniProt Q03530); experiment: yeast Rce1 CaaX protease inhibitors, dose response, biochemical, plate reader, dry powder retest (AID 588851)
T4 sequence (Q03530 whole entry): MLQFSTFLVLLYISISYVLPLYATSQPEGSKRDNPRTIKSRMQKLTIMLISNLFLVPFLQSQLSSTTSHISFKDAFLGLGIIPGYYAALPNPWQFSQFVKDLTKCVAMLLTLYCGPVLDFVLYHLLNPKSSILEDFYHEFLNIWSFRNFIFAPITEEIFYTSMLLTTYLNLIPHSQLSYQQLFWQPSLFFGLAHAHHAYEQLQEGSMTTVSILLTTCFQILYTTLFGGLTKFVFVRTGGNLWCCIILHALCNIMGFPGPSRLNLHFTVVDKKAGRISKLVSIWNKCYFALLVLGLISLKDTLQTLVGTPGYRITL

CAAX prenyl protease 2 [16] = biological target: CAAX prenyl protease 2 (Homo sapiens, UniProt Q9Y256); experiment: human Rce1 protease inhibitors, dose response, biochemical, yeast membranes, quenched-peptide fluorescence, cherry-pick (AID 588849)
CAAX prenyl protease 2 [17] = biological target: T4, CAAX prenyl protease 2; format: biochemical
Genome polyprotein = Genome polyprotein (dengue virus type 2, UniProt P29990); experiment: Dengue-2 NS5 methyltransferase inhibitors, primary screen, biochemical, confirmation dose response (AID 588689); format: functional
[18] = biological target: T5, Polyadenylate-binding protein 1 (Homo sapiens, UniProt P11940); experiment: PABP1 MLLE–PAM2 interaction inhibitors, dose response, miRNA deadenylation inhibitor project, biochemical, fluorescence polarization, Cy5-PAM2 peptide, secondary (AID 602260); format: functional; settings: read-out: IC50_Mean
[19] = biological target: Transitional endoplasmic reticulum ATPase (Homo sapiens, UniProt P55072); experiment: p97 ATPase inhibitors, dose response, biochemical (AID 1534)
Caspase-6 = biological target: T6, Caspase-6 (Homo sapiens, UniProt P55212); experiment: human caspase-6 inhibitors, dose response, biochemical, VEID-R110 fluorescence, cherry-pick (AID 720632)
T6 sequence (P55212 whole entry): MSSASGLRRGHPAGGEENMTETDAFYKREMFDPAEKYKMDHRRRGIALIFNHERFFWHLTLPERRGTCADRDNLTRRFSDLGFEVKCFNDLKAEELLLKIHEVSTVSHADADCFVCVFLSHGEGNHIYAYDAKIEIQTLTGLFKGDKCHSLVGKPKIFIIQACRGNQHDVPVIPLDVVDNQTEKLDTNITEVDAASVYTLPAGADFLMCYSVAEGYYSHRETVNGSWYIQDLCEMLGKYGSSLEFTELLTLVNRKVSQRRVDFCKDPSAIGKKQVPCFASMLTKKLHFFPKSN

[20] = biological target: T5, Polyadenylate-binding protein 1; experiment: PABP1 MLLE–PAM2 binding inhibitor potency, dose response, biochemical, fluorescence polarization, FITC-PAM2 peptide (AID 602259); format: functional; settings: read-out: IC50_Mean
[21] = biological target: Transitional endoplasmic reticulum ATPase (Homo sapiens, UniProt P55072, C522A); experiment: C522A mutant p97 ATPase inhibitors, dose response, counter-screen for p97 inhibitor project, biochemical, luminescence (AID 1544)
[22] = biological target: Glucose-6-phosphate 1-dehydrogenase (Homo sapiens, UniProt P11413); experiment: human G6PD enzyme inhibitors, dose response, selectivity assay for P. falciparum G6PD inhibitor project, biochemical, fluorescence (AID 504792); format: functional
Beta-arrestin-1 = Beta-arrestin-1 (Homo sapiens, UniProt P49407); experiment: inhibitors of arrestin peptide binding to AP2, dose response, biochemical, cherry pick 1, beta2-adaptin appendage, flow cytometry (AID 588783); format: functional
[23] = biological target: Nuclear receptor subfamily 0 group B member 1 (Homo sapiens, UniProt P51843); experiment: Luminescence-based cell-based high throughput dose response assay for inhibitors of the orphan nuclear receptor subfamily 0, group B, member 1 (DAX1; NR0B1). [Related pubchem assays (depositor defined):AID504766, AID504790]; format: functional
HEK293 = experiment: cells; format: functional, cell-based; settings: Homo sapiens

T5 sequence (P11940 whole entry): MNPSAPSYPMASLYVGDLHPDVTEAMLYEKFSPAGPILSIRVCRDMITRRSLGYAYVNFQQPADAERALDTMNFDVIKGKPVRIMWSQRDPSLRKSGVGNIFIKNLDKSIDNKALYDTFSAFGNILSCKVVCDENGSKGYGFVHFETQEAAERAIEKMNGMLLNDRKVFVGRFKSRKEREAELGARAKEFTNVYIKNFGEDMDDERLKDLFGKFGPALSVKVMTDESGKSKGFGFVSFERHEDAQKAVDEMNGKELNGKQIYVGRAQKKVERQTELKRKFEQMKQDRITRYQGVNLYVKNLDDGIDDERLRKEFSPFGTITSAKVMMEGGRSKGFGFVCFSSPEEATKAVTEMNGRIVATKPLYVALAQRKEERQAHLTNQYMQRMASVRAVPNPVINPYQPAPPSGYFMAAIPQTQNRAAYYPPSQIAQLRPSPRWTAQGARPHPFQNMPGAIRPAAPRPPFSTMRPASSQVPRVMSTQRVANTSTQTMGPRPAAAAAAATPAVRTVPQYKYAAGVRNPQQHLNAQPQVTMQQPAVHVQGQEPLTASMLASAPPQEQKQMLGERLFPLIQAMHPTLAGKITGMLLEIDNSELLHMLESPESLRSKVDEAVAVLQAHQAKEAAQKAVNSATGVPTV
Chain of NS3 (A3EZJ3 whole entry): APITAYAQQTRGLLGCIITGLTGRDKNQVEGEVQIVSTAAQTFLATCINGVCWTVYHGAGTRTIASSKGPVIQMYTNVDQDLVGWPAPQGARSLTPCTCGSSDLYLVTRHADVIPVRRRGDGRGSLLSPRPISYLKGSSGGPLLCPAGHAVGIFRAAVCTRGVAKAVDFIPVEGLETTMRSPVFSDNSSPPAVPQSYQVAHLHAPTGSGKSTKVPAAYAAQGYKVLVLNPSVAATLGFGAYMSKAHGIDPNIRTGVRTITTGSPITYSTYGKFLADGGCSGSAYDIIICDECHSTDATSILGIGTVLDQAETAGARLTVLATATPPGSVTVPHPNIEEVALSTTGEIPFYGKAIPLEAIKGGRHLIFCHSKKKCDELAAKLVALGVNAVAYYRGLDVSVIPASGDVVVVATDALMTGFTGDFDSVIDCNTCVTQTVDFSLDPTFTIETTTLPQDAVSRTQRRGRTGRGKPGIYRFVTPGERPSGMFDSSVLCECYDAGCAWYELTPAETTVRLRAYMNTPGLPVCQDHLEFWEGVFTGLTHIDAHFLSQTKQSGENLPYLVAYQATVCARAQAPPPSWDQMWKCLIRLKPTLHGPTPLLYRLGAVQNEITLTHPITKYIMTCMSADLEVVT
Chain of Transitional endoplasmic reticulum ATPase (Homo sapiens, UniProt P55072, C522A) (P55072 2-806 C522A limits assumed): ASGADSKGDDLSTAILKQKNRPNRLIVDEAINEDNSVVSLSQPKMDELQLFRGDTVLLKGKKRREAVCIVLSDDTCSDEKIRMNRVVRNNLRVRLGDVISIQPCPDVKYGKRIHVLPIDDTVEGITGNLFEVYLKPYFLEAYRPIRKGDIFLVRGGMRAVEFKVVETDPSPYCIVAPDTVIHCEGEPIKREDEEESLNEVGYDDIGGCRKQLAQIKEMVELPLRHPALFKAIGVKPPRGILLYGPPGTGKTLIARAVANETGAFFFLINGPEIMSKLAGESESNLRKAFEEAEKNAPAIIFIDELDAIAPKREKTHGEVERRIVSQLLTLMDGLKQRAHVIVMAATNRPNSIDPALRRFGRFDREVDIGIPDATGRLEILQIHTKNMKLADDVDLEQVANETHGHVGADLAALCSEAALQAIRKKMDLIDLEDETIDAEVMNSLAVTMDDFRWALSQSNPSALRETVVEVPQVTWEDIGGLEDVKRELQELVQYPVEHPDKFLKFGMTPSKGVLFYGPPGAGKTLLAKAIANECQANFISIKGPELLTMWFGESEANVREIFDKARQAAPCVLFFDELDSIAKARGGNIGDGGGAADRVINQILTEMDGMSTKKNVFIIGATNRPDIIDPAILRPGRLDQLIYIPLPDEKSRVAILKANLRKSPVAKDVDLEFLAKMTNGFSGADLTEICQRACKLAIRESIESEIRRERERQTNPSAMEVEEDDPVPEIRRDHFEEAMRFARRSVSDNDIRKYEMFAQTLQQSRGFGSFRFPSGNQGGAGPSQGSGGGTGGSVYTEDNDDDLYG
Chain of Glyceraldehyde-3-phosphate dehydrogenase (P04406 whole entry): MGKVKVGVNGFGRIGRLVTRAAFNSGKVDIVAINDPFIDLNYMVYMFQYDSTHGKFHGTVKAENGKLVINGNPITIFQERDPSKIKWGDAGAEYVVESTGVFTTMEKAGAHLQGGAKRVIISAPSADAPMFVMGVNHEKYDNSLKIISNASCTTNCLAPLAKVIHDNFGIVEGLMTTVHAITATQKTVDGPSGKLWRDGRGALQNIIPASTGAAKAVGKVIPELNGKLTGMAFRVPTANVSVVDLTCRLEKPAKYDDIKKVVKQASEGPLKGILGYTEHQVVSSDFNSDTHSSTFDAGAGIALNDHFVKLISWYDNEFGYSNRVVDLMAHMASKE
Chain of Glucose-6-phosphate 1-dehydrogenase (P11413 whole entry): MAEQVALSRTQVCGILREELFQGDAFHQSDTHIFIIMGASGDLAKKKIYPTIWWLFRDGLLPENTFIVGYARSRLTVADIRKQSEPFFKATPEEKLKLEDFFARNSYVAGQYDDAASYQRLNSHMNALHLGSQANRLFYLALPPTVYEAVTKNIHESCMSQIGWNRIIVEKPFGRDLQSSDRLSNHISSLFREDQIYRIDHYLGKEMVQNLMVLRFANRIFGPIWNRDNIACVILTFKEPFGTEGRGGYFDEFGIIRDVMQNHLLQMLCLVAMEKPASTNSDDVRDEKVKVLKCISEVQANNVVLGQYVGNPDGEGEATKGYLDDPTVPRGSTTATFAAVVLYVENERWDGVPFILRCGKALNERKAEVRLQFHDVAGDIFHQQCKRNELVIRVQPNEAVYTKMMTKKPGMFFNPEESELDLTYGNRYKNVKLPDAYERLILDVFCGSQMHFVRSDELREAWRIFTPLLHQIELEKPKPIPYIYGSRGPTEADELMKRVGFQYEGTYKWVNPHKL
Chain of Nuclear receptor subfamily 0 group B member 1 (P51843 whole entry): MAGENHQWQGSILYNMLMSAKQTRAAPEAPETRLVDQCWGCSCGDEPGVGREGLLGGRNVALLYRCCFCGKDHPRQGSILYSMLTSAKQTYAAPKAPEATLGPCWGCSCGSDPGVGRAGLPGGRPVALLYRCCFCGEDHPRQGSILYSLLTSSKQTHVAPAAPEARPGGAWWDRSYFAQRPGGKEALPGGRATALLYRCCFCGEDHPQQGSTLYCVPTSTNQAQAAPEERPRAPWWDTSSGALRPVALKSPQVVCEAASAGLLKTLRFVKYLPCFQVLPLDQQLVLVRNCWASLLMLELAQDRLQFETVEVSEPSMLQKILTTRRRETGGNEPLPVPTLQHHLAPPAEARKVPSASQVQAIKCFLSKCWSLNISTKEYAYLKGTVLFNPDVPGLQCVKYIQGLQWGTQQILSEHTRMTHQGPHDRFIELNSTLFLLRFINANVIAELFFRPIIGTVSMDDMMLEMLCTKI
Chain of Voltage-gated inwardly rectifying potassium channel KCNH2 (Q12809 whole entry): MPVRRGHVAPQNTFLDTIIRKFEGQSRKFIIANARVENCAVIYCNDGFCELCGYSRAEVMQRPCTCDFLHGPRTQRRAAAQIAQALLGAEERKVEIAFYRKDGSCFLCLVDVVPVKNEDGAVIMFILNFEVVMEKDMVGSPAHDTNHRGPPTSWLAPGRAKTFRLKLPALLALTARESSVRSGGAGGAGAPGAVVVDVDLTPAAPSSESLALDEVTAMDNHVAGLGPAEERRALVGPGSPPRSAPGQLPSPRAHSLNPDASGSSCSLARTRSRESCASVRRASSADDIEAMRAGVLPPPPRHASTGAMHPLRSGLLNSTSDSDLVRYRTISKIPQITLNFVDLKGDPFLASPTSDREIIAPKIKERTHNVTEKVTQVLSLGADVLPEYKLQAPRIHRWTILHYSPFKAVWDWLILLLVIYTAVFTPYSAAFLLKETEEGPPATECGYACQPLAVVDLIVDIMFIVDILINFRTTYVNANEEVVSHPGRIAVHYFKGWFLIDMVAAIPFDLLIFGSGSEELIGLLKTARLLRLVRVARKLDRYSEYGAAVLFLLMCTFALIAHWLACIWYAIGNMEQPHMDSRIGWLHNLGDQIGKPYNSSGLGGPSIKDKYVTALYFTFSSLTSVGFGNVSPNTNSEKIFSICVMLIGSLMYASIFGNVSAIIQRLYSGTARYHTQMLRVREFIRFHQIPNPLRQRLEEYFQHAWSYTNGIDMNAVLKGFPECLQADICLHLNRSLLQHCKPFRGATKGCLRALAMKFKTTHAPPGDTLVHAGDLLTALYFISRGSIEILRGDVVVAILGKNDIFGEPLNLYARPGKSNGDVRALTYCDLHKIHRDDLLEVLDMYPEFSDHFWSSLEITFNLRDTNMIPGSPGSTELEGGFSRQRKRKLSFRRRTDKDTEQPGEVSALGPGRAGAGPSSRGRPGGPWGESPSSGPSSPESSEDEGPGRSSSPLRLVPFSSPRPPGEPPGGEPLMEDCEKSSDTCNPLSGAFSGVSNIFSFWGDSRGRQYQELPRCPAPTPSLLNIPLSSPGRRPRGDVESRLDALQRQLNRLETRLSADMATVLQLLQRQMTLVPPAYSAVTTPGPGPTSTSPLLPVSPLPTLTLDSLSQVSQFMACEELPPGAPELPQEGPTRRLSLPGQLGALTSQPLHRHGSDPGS
Chain of CAAX prenyl protease 2 (Homo sapiens, UniProt Q9Y256) (Q9Y256 whole entry): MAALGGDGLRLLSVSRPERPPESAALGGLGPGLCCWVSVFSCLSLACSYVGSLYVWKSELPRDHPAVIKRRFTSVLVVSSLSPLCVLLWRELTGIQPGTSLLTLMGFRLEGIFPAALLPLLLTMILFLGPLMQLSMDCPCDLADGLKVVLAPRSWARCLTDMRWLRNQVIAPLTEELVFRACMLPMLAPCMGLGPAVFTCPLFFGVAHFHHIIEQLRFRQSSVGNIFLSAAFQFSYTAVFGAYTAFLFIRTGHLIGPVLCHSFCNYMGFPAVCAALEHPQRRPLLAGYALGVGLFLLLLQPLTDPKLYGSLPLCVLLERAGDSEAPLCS

SMILES: NCCNC(=O)c1ncsc1-c1cccc(F)c1
AC50 [1]: 35.5 µM (inconclusive)

IC50 [2]: > 100 µM (inactive)
IC50 [3]: > 100 µM (inactive)
IC50 [4]: > 100 µM (not active)
IC50 [5]: > 100 µM (not active)
SMILES: CCOC(=O)C1Nc2c(OC)cccc2C2OCCCC12 (stereo not given)

SMILES: COc1ccc(-c2nc(-c3ccc(O)cc3O)cs2)cc1OC
IC50 [6]: 14.1 µM (inactive)
IC50 [7]: 55.1 µM (active)
CC50 [8]: 74.7 µM (active)
IC50 [9]: 4.5 µM (active)

SMILES: C[C@H](NC(=O)c1nc[nH]c1C(=O)N[C@@H](C)C(=O)OCc1ccccc1)C(=O)OCc1ccccc1
IC50 [10]: > 80 µM (inactive)
IC50 (Jurkat): 73.6 µM (inactive)

IC50 (NS3): 2.68 µM (active)
SMILES: COc1cc(C2C(C(=O)c3ccc(C)o3)=C(O)C(=O)N2c2cc(C)on2)ccc1OCc1ccccc1 (stereo not given)
CC50 [11]: > 100 µM (inactive)

SMILES: O=C(c1cccs1)N1CCN(c2ccnc3cc(Cl)ccc23)CC1
AC50 (Candida albicans [12]): 2.96 µM (active)
AC50 (NIH3T3): 17.9 µM (active)
AC50 (Candida albicans [13]): 1.71 µM (active)
AC50 (Candida albicans [14]): 5.31 µM (active)

AC50 (CAAX prenyl protease 2 [15]): 37.1 µM (active)
AC50 (CAAX prenyl protease 2 [16]): 15.3 µM (active)
AC50 (CAAX prenyl protease 2 [17]): 1.53 µM (active)
SMILES: CCOc1cccc(-c2c(C(=O)N/N=C/c3cccs3)nnn2-c2nonc2N)c1

IC50 (Genome polyprotein): 4.59 µM (active)
IC50 [18]: > 66 µM (inactive)
IC50 [19]: > 50 µM (not active)
AC50 (Caspase-6): 0.351 µM (active)
IC50 [20]: > 66 µM (inactive)
IC50 [21]: > 50 µM (not active)
IC50 [22]: > 80 µM (inactive)
IC50 (Beta-arrestin-1): 11 µM (active)
SMILES: NS(=O)(=O)c1ccc(N/N=C/c2ccc(O)c(O)c2O)c([N+](=O)[O-])c1

SMILES: COc1cc(C(=O)O)cc(OC)c1OC [3,4,5-TRIMETHOXYBENZOIC ACID]
IC50 [23]: > 67.5 µM (inactive)
IC50 (HEK293): > 67.5 µM (inactive)
